Each block holds one compound with its values, some of them ahead of it. Calls of active or inactive are those of the source.
How the values were obtained:
[1] = biological target: T1, Short transient receptor potential channel 4 (Mus musculus, UniProt Q9QUQ5); assay: mouse TRPC4 channel inhibitors, dose response, cell-based, HEK293 TRPC4/mu-opioid, Fluo-4 calcium (AID 434942); format: functional;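 further: potency of inhibitors blocking the TRPC4 calcium response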
T1 sequence (Q9QUQ5 whole entry): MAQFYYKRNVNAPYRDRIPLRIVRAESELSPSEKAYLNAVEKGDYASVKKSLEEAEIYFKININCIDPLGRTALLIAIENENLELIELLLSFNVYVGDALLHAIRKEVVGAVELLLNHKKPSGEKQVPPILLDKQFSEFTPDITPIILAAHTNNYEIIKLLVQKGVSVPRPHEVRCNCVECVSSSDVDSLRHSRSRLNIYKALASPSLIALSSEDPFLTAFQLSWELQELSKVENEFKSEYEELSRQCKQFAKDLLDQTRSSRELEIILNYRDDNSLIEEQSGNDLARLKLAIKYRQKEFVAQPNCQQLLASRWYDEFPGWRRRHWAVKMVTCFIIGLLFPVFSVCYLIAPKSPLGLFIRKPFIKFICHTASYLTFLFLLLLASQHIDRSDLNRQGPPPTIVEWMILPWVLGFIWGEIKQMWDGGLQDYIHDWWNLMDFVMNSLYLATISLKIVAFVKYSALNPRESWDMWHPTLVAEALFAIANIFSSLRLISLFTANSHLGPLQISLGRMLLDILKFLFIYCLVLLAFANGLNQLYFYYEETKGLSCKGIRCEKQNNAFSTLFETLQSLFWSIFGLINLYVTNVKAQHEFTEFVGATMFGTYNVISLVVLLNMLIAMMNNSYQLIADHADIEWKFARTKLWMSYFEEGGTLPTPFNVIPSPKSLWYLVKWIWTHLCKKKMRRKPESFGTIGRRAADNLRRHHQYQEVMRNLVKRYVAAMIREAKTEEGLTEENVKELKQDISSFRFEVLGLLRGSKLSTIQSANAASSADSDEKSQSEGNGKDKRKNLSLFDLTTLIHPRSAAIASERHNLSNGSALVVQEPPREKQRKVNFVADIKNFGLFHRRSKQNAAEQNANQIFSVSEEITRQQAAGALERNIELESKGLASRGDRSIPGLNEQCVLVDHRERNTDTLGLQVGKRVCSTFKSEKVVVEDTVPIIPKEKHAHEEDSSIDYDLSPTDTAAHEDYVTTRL

Protein skinhead-1 = biological target: T2, Protein skinhead-1 (Caenorhabditis elegans, UniProt P34707); format: functional
T2 sequence (P34707 whole entry): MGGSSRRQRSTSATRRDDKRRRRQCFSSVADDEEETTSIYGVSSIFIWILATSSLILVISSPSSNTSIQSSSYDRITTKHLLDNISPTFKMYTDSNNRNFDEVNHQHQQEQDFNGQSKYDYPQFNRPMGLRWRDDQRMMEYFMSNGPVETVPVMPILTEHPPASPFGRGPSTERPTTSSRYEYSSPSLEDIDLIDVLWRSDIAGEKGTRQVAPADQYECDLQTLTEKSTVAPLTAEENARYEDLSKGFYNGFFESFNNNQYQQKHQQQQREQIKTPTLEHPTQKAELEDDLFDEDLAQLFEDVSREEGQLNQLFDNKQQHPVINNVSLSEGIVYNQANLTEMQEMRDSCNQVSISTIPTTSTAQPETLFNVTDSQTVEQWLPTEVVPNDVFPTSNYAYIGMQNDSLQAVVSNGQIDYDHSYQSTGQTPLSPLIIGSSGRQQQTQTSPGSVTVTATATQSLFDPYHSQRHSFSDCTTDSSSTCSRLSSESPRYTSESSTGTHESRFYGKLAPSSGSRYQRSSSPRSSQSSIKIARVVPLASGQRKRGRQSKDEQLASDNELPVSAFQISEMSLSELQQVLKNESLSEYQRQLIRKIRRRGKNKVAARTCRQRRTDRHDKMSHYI

[2] = P. falciparum Dd2 growth inhibitors, dose response, SYBR Green, cherry-picked samples (AID 1159567); format: functional, cell-based
[3] = inhibitors of intracellular T. cruzi replication, confirmation, NIH3T3 host cells, beta-gal luminescence (AID 2044); format: functional, cell-based;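 further: intracellular parasites grown in NIH/3T3 mouse fibroblasts as host cells; luminescent beta-galactosidase reporter signal from transgenic T. cruzi replicating inside host cells; inhibitors lower the luminescence signal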
[4] = cytotoxicity toward NIH3T3 fibroblasts, dose response, counter-screen, cell-based, ATP luminescence, mouse fibroblasts (AID 2010); format: functional;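 further: cells exposed to compound for about 90 hours before reading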
[5] = biological target: T3, Heat shock factor protein 1 (Mus musculus, UniProt P38532); assay: HSF1 potentiators in luciferase reporter cells, confirmation, cell-based, NIH3T3, luminescence, dose retest (AID 435004); format: functional;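 further: stress induced by proteasome inhibitor MG132 added 30 min after compound; luciferase reporter driven by HSF1 response element in NIH3T3 cells; actives raise luminescence as potentiators of the MG132 stress response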
T3 sequence (P38532 whole entry): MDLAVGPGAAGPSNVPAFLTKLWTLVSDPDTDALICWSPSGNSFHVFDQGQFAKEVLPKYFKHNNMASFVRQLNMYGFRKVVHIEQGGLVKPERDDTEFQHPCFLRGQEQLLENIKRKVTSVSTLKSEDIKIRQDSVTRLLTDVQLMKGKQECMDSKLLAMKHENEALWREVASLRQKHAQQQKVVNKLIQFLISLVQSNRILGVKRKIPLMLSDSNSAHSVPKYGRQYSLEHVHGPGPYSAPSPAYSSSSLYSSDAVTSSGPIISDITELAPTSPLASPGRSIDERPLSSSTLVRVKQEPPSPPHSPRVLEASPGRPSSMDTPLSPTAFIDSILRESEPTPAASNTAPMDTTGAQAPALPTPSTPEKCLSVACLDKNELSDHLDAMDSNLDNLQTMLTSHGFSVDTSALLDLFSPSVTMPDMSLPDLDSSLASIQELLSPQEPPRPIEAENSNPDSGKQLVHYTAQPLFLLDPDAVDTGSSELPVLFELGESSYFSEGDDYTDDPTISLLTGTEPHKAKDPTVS

Fatty acid synthase [6] = biological target: T4, Fatty acid synthase (Homo sapiens, UniProt P49327); assay: FAS thioesterase domain inhibitors, dose response, biochemical, endpoint fluorescence intensity, uHTS hits (AID 624327); format: functional;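 further: fluorescence from hydrolysis of an O-methyl fluorescein acyl ester substrate by the enzyme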
Fatty acid synthase [7] = biological target: T4, Fatty acid synthase; assay: FAS thioesterase domain inhibitors, dose response, biochemical, kinetic fluorescence intensity (AID 624326); format: functional;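 further: rate of fluorescence rise from hydrolysis of a fluorogenic O-methyl fluorescein ester substrate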
[8] = biological target: Induced myeloid leukemia cell differentiation protein Mcl-1 (Homo sapiens, UniProt Q07820); format: functional
[9] = NIH-3T3 fibroblast cytotoxicity, dose response, cytotoxicity control, cell-based, fluorescence, Alamar Blue, secondary assay (AID 2327); format: functional;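 further: NIH-3T3 mouse fibroblasts cultured with fluconazole at 8 µg/mL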
Paired box protein Pax-8 = Paired box protein Pax-8 (Homo sapiens, UniProt Q06710); assay: inhibitors of PAX8-driven TPO luciferase reporter, dose response, RMG-I cells, cherry-pick (AID 687027); format: functional, cell-based;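 further: luciferase reporter driven by Pax8 target thyroperoxidase promoter measured by SteadyGlo luminescence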
Large T antigen = Large T antigen (Simian virus 40, UniProt P03070); format: functional, Betapolyomavirus macacae;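 further: Confirmatory-stage PubChem screen for compounds that inhibit SV40 T antigen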
[10] = biological target: T5, Rac GTPase-activating protein 1 (Homo sapiens, UniProt Q9H0H5); assay: MgcRacGAP GTPase-activating activity inhibitors, confirmation, biochemical, ADP Hunter fluorescence, primary and confirmatory (AID 624330); format: functional
T5 sequence (Q9H0H5 whole entry): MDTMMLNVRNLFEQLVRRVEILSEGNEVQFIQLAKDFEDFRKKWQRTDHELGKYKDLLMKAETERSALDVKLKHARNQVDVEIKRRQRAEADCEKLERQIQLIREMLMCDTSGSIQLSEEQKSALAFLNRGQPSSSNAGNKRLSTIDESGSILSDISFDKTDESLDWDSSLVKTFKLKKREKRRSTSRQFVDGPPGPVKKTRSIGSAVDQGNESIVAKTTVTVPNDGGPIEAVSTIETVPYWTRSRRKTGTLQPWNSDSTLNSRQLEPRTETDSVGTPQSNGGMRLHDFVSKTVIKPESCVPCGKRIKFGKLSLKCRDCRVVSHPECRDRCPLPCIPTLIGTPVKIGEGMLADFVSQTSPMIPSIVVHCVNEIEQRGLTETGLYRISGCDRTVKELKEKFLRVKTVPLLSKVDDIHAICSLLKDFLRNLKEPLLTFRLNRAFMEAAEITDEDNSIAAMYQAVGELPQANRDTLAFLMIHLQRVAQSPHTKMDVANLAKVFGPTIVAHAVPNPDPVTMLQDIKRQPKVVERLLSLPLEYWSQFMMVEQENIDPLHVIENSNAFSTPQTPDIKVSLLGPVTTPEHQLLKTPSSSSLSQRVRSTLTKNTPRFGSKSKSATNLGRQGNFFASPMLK

T4 sequence (P49327 whole entry, the tested form may be a part): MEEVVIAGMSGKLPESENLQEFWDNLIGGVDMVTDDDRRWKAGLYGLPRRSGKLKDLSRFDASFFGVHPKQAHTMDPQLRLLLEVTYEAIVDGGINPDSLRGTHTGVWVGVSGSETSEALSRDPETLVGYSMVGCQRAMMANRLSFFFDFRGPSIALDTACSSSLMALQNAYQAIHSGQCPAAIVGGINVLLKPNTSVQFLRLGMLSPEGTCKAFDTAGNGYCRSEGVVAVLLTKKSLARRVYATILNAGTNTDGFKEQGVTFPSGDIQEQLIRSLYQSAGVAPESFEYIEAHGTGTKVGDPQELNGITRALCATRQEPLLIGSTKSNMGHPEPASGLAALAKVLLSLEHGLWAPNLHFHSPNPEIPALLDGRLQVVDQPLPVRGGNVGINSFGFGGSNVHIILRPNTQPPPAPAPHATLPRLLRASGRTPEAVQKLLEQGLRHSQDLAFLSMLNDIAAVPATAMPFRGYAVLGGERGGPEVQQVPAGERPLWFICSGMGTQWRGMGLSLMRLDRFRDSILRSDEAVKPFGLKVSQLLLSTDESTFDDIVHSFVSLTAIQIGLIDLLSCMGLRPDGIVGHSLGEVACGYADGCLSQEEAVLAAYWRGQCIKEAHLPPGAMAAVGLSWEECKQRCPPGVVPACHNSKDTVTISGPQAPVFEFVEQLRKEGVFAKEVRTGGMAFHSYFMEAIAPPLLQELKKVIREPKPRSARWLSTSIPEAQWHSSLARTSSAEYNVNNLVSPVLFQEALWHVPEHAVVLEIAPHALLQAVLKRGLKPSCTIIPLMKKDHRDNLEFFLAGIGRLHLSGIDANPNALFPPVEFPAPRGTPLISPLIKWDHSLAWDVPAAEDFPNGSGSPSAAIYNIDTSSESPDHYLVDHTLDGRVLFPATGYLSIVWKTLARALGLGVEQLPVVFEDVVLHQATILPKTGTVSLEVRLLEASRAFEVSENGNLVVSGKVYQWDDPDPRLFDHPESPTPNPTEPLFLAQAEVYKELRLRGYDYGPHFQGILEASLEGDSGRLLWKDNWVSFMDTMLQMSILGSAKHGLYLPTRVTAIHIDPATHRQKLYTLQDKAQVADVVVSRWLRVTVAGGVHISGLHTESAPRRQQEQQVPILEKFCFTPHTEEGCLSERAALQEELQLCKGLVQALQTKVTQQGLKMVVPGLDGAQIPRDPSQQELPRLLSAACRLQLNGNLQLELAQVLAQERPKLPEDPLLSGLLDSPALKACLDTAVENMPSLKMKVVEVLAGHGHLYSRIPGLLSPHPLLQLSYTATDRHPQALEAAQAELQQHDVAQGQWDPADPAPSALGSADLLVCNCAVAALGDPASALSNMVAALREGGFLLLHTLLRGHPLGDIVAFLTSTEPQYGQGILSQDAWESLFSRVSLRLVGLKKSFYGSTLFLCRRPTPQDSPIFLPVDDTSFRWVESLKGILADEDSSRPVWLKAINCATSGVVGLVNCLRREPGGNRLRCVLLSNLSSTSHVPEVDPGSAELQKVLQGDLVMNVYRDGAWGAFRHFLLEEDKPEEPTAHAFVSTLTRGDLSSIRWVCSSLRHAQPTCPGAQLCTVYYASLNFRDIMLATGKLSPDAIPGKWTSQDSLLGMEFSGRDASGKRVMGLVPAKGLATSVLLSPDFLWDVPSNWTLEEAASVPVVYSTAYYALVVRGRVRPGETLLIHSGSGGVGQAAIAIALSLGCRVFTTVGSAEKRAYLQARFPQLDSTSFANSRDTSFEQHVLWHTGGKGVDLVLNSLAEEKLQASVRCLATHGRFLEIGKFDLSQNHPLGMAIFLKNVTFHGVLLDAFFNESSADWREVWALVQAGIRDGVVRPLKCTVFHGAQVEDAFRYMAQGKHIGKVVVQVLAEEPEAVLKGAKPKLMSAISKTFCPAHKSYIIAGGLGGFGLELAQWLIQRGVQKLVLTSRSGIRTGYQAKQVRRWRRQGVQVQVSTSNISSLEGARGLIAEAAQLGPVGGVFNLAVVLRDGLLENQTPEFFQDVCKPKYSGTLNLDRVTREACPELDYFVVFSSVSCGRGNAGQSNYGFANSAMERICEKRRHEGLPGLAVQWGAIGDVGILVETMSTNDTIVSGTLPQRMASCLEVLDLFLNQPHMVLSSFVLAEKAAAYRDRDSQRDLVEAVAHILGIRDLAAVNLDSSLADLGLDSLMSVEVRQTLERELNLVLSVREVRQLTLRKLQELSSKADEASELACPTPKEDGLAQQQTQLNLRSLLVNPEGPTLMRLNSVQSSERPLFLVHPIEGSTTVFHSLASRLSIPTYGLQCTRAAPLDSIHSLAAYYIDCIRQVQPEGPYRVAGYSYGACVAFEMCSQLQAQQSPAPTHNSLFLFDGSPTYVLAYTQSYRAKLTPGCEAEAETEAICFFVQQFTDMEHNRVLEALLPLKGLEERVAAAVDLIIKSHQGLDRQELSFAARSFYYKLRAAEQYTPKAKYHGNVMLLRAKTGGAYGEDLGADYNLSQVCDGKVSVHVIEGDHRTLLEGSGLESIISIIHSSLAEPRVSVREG
Induced myeloid leukemia cell differentiation protein Mcl-1, sequence (Q07820 whole entry): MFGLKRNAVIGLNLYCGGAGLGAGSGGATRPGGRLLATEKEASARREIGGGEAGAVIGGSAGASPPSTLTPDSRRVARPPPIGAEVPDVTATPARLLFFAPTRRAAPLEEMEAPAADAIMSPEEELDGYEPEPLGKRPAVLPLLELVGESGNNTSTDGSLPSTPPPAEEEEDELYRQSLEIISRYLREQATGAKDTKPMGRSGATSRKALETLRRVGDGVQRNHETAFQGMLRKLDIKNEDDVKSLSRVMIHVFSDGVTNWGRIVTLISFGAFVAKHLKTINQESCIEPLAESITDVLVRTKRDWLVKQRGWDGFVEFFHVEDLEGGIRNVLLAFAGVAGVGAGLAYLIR
Paired box protein Pax-8, sequence (Q06710 whole entry): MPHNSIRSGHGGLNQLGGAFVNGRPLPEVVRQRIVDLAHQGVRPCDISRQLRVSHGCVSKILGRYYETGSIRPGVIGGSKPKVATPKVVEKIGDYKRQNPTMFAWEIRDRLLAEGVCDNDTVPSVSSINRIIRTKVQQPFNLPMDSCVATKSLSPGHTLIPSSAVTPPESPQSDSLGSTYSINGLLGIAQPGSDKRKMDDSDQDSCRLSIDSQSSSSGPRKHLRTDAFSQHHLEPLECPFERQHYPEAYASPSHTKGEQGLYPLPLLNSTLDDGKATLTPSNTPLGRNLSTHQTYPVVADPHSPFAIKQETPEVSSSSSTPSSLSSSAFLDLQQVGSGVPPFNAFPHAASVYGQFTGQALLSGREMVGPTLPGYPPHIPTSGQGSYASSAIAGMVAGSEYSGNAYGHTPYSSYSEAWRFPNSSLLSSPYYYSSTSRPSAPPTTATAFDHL
Large T antigen, sequence (P03070 whole entry): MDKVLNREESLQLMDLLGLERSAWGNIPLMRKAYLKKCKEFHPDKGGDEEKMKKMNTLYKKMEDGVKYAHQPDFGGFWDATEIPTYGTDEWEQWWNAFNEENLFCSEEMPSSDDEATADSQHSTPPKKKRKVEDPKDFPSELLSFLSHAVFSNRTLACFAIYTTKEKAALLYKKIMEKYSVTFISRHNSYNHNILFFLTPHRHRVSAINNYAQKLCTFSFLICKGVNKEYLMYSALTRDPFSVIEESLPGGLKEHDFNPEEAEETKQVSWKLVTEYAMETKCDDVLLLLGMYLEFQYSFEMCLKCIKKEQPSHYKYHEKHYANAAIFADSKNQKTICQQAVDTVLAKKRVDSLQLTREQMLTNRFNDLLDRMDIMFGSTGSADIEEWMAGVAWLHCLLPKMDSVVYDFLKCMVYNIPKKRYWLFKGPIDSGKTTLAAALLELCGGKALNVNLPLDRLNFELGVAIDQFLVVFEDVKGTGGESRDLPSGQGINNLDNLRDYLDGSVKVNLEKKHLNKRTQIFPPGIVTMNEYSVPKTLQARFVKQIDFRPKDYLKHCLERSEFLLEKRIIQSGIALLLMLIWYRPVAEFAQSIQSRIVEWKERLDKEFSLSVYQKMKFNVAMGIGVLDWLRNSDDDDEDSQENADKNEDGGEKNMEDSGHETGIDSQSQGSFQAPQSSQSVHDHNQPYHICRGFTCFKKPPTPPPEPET

Structure (SMILES): C/C=C/c1ccc([C@H]2[C@H](CO)N(S(=O)(=O)Cc3ccccc3)C23CN(C(=O)C2CCCC2)C3)cc1
AC50 [2]: 5.3 µM (active)

Structure (SMILES): O=C(Nc1ccccc1N1CCN(C(=O)c2ccc(Cl)cc2)CC1)c1cccc([N+](=O)[O-])c1
EC50 [3]: 1.34 µM (active) | EC50 [4]: > 60 µM (not active) | EC50 [1]: 0.376 µM (active) | EC50 [5]: > 260 µM (inactive)

Structure (SMILES): COc1ccc(S(=O)(=O)N(C)C[C@H]2Oc3ncc(-c4ccncc4)cc3C(=O)N([C@H](C)CO)C[C@@H]2C)cc1
AC50 [2]: 6.55 µM (active)

Structure (SMILES): CCc1ccc(CNC(=O)C2CCCN(c3nnc(C)c4c(C)n(-c5ccccc5)nc34)C2)cc1 (stereo not drawn)
EC50 [9]: 14.7 µM (inconclusive) | AC50 (Paired box protein Pax-8): 9.17 µM (active)

Structure (SMILES): CCn1nc(C)c(CN2CCCC(CO)(Cc3cccc(Cl)c3)C2)c1C (stereo not drawn)
EC50 [3]: 0.247 µM (active) | EC50 [4]: > 30 µM (not active) | EC50 [1]: 1.06 µM (active)

Structure (SMILES): C[C@@]12C(=O)Nc3cc(F)ccc3C(=O)N1[C@H]1c3ccccc3OC[C@@H]1[C@@H]2c1ccccc1
IC50 (Fatty acid synthase [6]): 18.1 µM (active) | IC50 (Fatty acid synthase [7]): 20.3 µM (inactive)

Now from value to compound:

EC50 [1]: 5.31 µM (active) | IC50 (Protein skinhead-1): > 100 µM (inactive)
Structure (SMILES): CC1CCN(C(C)C(=O)Nc2ccccc2-c2ccccc2)CC1 (stereo not drawn)

EC50 [1]: 4.73 µM (active)
Structure (SMILES): CCCc1nc(SC2CCCC2)c2c(=O)n(C)c(=O)n(C)c2n1

IC50 (Fatty acid synthase [6]): 4.81 µM (active) | IC50 (Fatty acid synthase [7]): 7.99 µM (active)
Structure (SMILES): COc1cccc(-n2c(CN3CCN(c4ccccc4)CC3)nc3ccc([N+](=O)[O-])cc3c2=O)c1

EC50 [1]: 6.68 µM (active)
Structure (SMILES): Cc1ccc(C(=O)C2=C(O)C(=O)N(Cc3cccnc3)C2c2ccc(Cl)c(Cl)c2)o1 (stereo not drawn)

IC50 [8]: 7.06 µM (not active)
Structure (SMILES): Cc1ccc(C(=O)Nc2ccc(N3CCCC3)cc2)c(C)c1

IC50 [8]: 2.92 µM (active)
Structure (SMILES): COc1ccccc1C(=O)N=Nc1c(O)[nH]c2ccc([N+](=O)[O-])cc12

IC50 (Large T antigen): 12.3 µM (active) | IC50 [10]: 16.7 µM (active)
Structure (SMILES): O=C1CCCC(O)=C1/C=N/c1ccc(O)cc1

— ChEMBL document CHEMBL1201862, “PubChem BioAssay data set” (2004)
